Test results published in ChEMBL document CHEMBL1136245, “HIV-1 protease inhibitors with picomolar potency against PI-resistant HIV-1 by modification of the P1' substituent” (Bioorg Med Chem Lett, 2003).
Converted amounts (≈) assume the structure as drawn.

Assays:
[1] = Half life of compound after both po and iv administration at a dose of 5 mg/kg and 2 mg/kg resp in dog; assay type: ADME, organism-based, Canis lupus familiaris; conditions: in vivo
[2] = Area under curve of compound after both po and iv administration at a dose of 5 mg/kg and 2 mg/kg resp in dog; assay type: ADME, organism-based, Canis lupus familiaris; conditions: in vivo
[3] = Clearance of compound after both po and iv administration at a dose of 5 mg/kg and 2 mg/kg resp in dog; assay type: ADME, organism-based, Canis lupus familiaris; conditions: in vivo
MT4 [4] = experiment: Antiviral activity of compound against spread of wild type V-18C virus infection in MT-4 human T-lymphoid cells; assay type: functional; conditions: read-out: CIC95
MT4 [5] = experiment: Antiviral activity of compound against spread of wild type K-60C virus infection in MT-4 human T-lymphoid cells; assay type: functional; conditions: read-out: CIC95
MT4 [6] = experiment: Antiviral activity of compound against spread of wild type NL4-3 virus infection in MT-4 human T-lymphoid cells; assay type: functional; conditions: read-out: CIC95
MT4 [7] = experiment: Antiviral activity of compound against spread of wild type Q-60C virus infection in MT-4 human T-lymphoid cells; assay type: functional; conditions: read-out: CIC95
[8] = molecular target: T1, Human immunodeficiency virus type 1 protease (Human immunodeficiency virus 1, UniProt Q72874); experiment: Inhibitory activity of compound against HIV-1 protease in HIV-1 (K-60C) strain
[9] = molecular target: T1, Human immunodeficiency virus type 1 protease; experiment: Inhibitory activity of compound against HIV-1 protease in HIV-1 (Q-60C) strain
[10] = molecular target: T1, Human immunodeficiency virus type 1 protease; experiment: Inhibitory activity of compound against HIV-1 protease in HIV-1 (V-18C) strain
[11] = Solubility of compound at pH 5.2; assay type: physicochemical; conditions: buffer
[12] = molecular target: T1, Human immunodeficiency virus type 1 protease; experiment: Inhibitory activity of compound against HIV-1 protease in wild type NL4-3 virus
Cytochrome P450 2C9 [13] = molecular target: T2, Cytochrome P450 2C9 (Homo sapiens, UniProt P11712); experiment: Inhibition of human liver microsome Cytochrome P450 2C9; assay type: ADME, microsomes
Cytochrome P450 3A4 = Cytochrome P450 3A4 (Homo sapiens, UniProt P08684); experiment: Inhibition of human liver microsome Cytochrome P450 3A4; assay type: ADME, microsomes
Cytochrome P450 2D6 [14] = molecular target: T3, Cytochrome P450 2D6 (Homo sapiens, UniProt P10635); experiment: (§1) Inhibition of human liver microsome Cytochrome P450 2D6; assay type: ADME
[15] = Oral bioavailability in dog (dose 5 mg/kg p.o. and 2 mg/kg i.v.); assay type: ADME, organism-based, Canis lupus familiaris; conditions: in vivo
[16] = Cmax of compound after both po and iv administration at a dose of 5 mg/kg and 2 mg/kg resp in dog; assay type: ADME, organism-based, Canis lupus familiaris; conditions: in vivo
Cytochrome P450 2C9 [17] = molecular target: T2, Cytochrome P450 2C9; experiment: Inhibition of huamn liver microsome Cytochrome P450 2C9; assay type: ADME, microsomes
Cytochrome P450 2D6 [18] = molecular target: T3, Cytochrome P450 2D6; experiment: as §1; assay type: ADME, microsomes

T2 sequence (P11712 whole entry): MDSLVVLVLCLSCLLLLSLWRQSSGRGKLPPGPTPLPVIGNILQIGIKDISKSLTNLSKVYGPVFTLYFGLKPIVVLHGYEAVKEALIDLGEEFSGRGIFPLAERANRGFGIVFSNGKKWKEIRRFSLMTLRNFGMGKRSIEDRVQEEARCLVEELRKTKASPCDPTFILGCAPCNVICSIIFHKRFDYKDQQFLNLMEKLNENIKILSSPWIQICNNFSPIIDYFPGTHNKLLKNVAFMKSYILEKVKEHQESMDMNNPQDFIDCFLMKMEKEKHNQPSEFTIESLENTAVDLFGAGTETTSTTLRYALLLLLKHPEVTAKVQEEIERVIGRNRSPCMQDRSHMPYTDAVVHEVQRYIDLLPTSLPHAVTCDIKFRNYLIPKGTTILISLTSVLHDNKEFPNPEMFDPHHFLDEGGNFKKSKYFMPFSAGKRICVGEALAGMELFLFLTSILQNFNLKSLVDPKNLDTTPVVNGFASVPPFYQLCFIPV
Cytochrome P450 3A4, sequence (P08684 whole entry): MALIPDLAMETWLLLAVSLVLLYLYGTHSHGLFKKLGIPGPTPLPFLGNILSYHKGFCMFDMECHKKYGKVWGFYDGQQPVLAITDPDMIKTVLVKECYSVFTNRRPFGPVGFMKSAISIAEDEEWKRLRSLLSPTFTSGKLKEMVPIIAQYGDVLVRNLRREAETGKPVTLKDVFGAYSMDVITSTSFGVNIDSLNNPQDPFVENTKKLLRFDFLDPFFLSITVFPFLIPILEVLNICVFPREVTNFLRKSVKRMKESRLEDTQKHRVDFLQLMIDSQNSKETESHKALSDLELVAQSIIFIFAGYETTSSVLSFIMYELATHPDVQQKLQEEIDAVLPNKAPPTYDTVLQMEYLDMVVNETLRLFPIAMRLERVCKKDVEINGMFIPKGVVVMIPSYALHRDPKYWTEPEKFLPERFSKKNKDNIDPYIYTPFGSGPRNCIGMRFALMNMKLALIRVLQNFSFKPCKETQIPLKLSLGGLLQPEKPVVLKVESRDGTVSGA
T3 sequence (P10635 whole entry): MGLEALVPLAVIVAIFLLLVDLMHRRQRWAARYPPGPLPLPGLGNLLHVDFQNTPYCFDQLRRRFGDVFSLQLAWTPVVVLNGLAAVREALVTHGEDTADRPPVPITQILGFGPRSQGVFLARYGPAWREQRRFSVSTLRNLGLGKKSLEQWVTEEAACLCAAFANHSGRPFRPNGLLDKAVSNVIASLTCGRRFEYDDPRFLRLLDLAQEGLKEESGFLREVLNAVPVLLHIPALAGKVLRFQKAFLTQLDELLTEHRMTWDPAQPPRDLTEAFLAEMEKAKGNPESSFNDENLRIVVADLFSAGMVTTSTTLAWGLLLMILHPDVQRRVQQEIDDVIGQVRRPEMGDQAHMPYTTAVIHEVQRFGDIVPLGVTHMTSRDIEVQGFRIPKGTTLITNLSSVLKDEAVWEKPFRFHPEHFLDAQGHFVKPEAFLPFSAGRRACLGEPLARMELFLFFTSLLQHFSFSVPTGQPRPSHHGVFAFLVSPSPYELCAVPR

| SMILES | half-life [1] [h] | AUC [2] [µM·h] | clearance [3] [mL/min/kg] | IC95 (MT4 [4]) [nM] | IC95 (MT4 [5]) [nM] | IC95 (MT4 [6]) [nM] | IC95 (MT4 [7]) [nM] | IC50 [8] [nM] | IC50 [9] [nM] | IC50 [10] [nM] | solubility [11] [µg/mL] | IC50 [12] [nM] | IC50 (Cytochrome P450 2C9 [13]) [nM] | IC50 (Cytochrome P450 3A4) [nM] | IC50 (Cytochrome P450 2D6 [14]) [nM] | bioavailability [15] [%] | Cmax [16] [nM] | IC50 (Cytochrome P450 2C9 [17]) [nM] | IC50 (Cytochrome P450 2D6 [18]) [nM] |
| --- | --- | --- | --- | --- | --- | --- | --- | --- | --- | --- | --- | --- | --- | --- | --- | --- | --- | --- | --- |
| O=C(N[C@H]1c2ccccc2OC[C@H]1O)[C@H](Cc1ccccc1)C[C@H](O)CN1CCN(Cc2ccc(-c3ccncc3)o2)C[C@H]1C(=O)NCC(F)(F)F | 1 | 2.58 | 24.5 | 31 | 15 | ≤ 8 | 31 | 0.6 | 0.8 | 1.3 | 670 (≈ 928 µM) |  |  |  |  |  |  |  |  |
| O=C(N[C@H]1c2ccccc2OC[C@H]1O)[C@H](Cc1ccncc1)C[C@H](O)CN1CCN(Cc2cc3cccc(Cl)c3o2)C[C@H]1C(=O)NCC(F)(F)F |  |  |  | ≤ 8 | 62 | ≤ 8 | 125 | 0.92 |  | 0.14 | < 10 | 0.03 |  |  |  |  |  |  |  |
| O=C(N[C@H]1c2ccccc2OC[C@H]1O)[C@H](Cc1cccnc1)C[C@H](O)CN1CCN(Cc2cc3cccc(Cl)c3o2)C[C@H]1C(=O)NCC(F)(F)F |  |  |  | ≤ 8 | 31 | 10 | 31 |  |  | 0.12 | 10 (≈ 13.7 µM) | 0.02 | 27300 | 500 | 8800 |  |  |  |  |
| O=C(N[C@H]1c2ccccc2OC[C@H]1O)[C@H](Cc1cccnc1)C[C@H](O)CN1CCN(Cc2cc3ccccc3o2)C[C@H]1C(=O)NCC(F)(F)F | 0.867 | 1.94 | 15 | 31 | 125 | 15 | 125 | 3.7 | 2.7 | 1.3 | 310 (≈ 446 µM) | 0.04 |  | 480 |  | 24 | 3360 | 48800 | 19000 |
| O=C(N[C@H]1c2ccccc2OC[C@H]1O)[C@H](Cc1ccncc1)C[C@H](O)CN1CCN(Cc2cc3ccccc3o2)C[C@H]1C(=O)NCC(F)(F)F | 1.7 | 0.22 | 22.5 |  |  | 15 | 250 | 10 |  | 2.2 | 280 (≈ 402 µM) | 0.1 |  | 2200 |  | 4 | 380 |  | 3600 |
| O=C(N[C@H]1c2ccccc2OC[C@H]1O)[C@H](Cc1ccncc1)C[C@H](O)CN1CCN(Cc2ccc(-c3ccccc3)o2)C[C@H]1C(=O)NCC(F)(F)F | 1.07 | 0.16 | 17.4 | 31 | ≤ 8 | 15 | 31 | 0.11 | 0.2 | 0.34 | 40 (≈ 55.4 µM) | 0.04 |  | 1500 |  | 2 | 210 |  | 14900 |
| O=C(N[C@H]1c2ccccc2OC[C@H]1O)[C@H](Cc1cccnc1)C[C@H](O)CN1CCN(Cc2ccc(-c3ccccc3)o2)C[C@H]1C(=O)NCC(F)(F)F | 1.23 | 0.08 | 20.5 | ≤ 8 | ≤ 8 | ≤ 8 | ≤ 8 | 0.06 | 0.07 | 0.15 | 10 (≈ 13.9 µM) | 0.02 |  | 430 |  | 1 | 110 | 83900 | 15600 |
| CC(C)(C)NC(=O)[C@@H]1CN(Cc2cccnc2)CCN1C[C@@H](O)C[C@@H](Cc1ccccc1)C(=O)N[C@H]1c2ccccc2C[C@H]1O |  |  |  | > 1000 | > 1000 | 50 | > 1000 |  |  |  |  |  |  |  |  |  |  |  |  |
